Results taken from US6812247B2, “Organometallic complex” (Academia Sinica, priority 2001, dated 2004).

How the values were obtained:
[1] = system: double helical oligonucleotide d(ATAT)2; assay: DNA binding and cleaving mechanism with oligonucleotide, LC-mass; settings: 1:1, pH 6.0, in the dark 2.0 h
Procedure: A double helical oligonucleotide d(ATAT)2 was prepared and added to a phosphate buffer solution (pH=6.0) containing complex 1 (1:1). The solution was kept in the dark for 2.0 h. An intermediate was detected, at a yield of 57%, with a signal at 650.1 for (M+H^+) as analyzed by an electron spray ionization detector in LC-mass chromatogram. Then, the solution was irradiated with 350 nm-UV light for 2.0 h at room temperature. A product was detected with a signal at 456.1 for (M+H^+). […] Then an intramolecular cyclization took place to remove the DMSO and to form a covalent bond between the N-7 nitrogen atom and the platinum in complex 1, resulting in the oligonucleotide cleavage.

[2] = system: 160-bp dsDNA fragment from the 501-660 fragment of pBR322 DNA; assay: Site-specific DNA cleavage of 5'-32P-labeled fragment, polyacrylamide gel against Maxam-Gilbert markers; assay type: biochemical; settings: complex 20-100 μM, 350-nm UV
Procedure: A 160-bp dsDNA fragment was prepared from the 501-660 fragment of pBR322 DNA. It was amplified by the polymerase chain reaction (Bailly & Waring (1995) J. Am. Chem. Soc. 117:7311; Bailly et al. (1993) J. Am. Chem. Soc. 115:3784; and Sayers & Waring (1993) Biochemistry 32:9094), and labeled at the 5′-terminus with γ-[^32P]-ATP and T4 polynucleotide kinase. A reaction mixture containing a 5′-terminus labeled ^32P-DNA solution, a phosphate buffer (0.10 M, pH 6.0), and complex 1 (20-100 μM) in a Pyrex vial was preincubated at 37° C. for 30 min. The reaction mixture was irradiated with 350-nm UV light under aerobic conditions for 2.0 h at room temperature. The bound metal complexes on DNA fragments were removed by using 0.30 N NaCN (pH=11) at 37° C. for 8.0 h (Schwartz et al. (1990) J. Am. Chem. Soc. 112:3673; and Zou et al. (1994) Biochemistry 33:5404). The reaction mixture was then quenched with either a gel-loading buffer or 95% ethanol. […] The samples and the Maxam-Gilbert markers were analyzed using 10% polyacrylamide/8.0 M urea gel. […] Quantitation of relative intensities of DNA fragments was performed using a Microtek scanner and NIH 1.60 image program.
The detected DNA fragments were compared with Maxam-Gilbert markers on an autoradiogram, and quantitated by a computer-assisted program.

[3] = system: supercoiled circular φX174 RFI DNA; assay: Single-strand DNA cleavage at various pH's, 350 nm UV, agarose gel; assay type: biochemical; settings: complex 5.0 μM
Procedure: Cleavage at Various pH's: A reaction mixture (10 μL) containing supercoiled circular φX174 RFI DNA stock solution (50 μM/base pair), complex 1 (5.0 μM), and a phosphate buffer (0.10 M, pH 5.0, 6.0, 7.0, and 8.0) in a Pyrex vial was preincubated at 37° C. The reaction mixture was then irradiated with 350 nm UV light (32-W) for 2.0 h at room temperature. After adding a gel-loading buffer (0.25% bomophenol blue, 0.25% xylene cyanol, and 30% glycerol), the reaction mixture was loaded on a 1% agarose gel, followed by ethidium bromide staining. The gel was visualized by a 312-nm UV transilluminator and photographed by a FB-PDC-34 camera. Supercoiled circular DNA and cleaved DNA were clearly seen from the gel.

[4] = system: 2′-deoxyguanosine; assay: Binding and cleaving mechanism with 2'-deoxyguanosine, LC-mass
Procedure: As a comparison, a reaction involving 2′-deoxyguanosine and complex 1 was carried out. […] As a result, cleavage at a guanine site required assistance from an external base (e.g., piperidine). In another experiment, an excess of complex 1 was added to a 2′-deoxyguanosine solution, followed by piperidine treatment. An intermediate was detected, at a yield of 42%, with a signal at 1063.9 for (M+H^+) as analyzed by an electron spray ionization detector in LC-mass chromatogram. The intermediate was able to give a cyclization product, at a yield of 80%, with a signal at 792.0 for (M+H^+) upon 350-nm UV light irradiation, but not in the dark. The scheme below depicts the just-described reaction: [drawing 6]

[5] = system: supercoiled circular φX174 RFI DNA; assay: Single-strand DNA cleavage at various complex concentrations, 350 nm UV, agarose gel; assay type: biochemical; settings: for % form I (supercoiled circular DNA) / % form II (cleaved DNA) / (% form II)/(% form I): pH 6.0
Procedure: The mixture was irradiated with 350 nm UV light (32-W) for 2.0 h at room temperature. After adding a gel-loading buffer (0.25% bromophenol blue, 0.25% xylene cyanol, and 30% glycerol), the reaction mixture was loaded on a 1% agarose gel, followed by ethidium bromide staining. The gel was visualized by a 312-nm UV transilluminator and photographed by a FB-PDC-34 camera. Supercoiled circular DNA (form I) and cleaved DNA (form II) were clearly seen from the gel.

[6] = complex 1.0 μM, 350 nm UV 2.0 h
[7] = complex 2.5 μM, 350 nm UV 2.0 h
[8] = complex 5.0 μM, 350 nm UV 2.0 h

`C[S+](C)(=O)[Pt]1([Cl])[O][n+]2ccccc2[S]1` (centres unmarked) [complex 1, PtCl(DMSO)[η^2—C5H4SN(O)]] was tested, and the “binding site on nucleic acid” value [1] was “bound to the C-6 amino on an adenine”, the “yield of complex-bound intermediate” value [1] was 57% and the “site of DNA cleavage” value ([2]; with hot piperidine treatment) was “cleaved DNA at purine residues”. The “site of DNA cleavage” value ([2]; without piperidine treatment) was “at adenine residues”, the “DNA forms seen on gel” value ([3]; pH 5.0, 6.0, or 7.0, 350 nm UV 2.0 h) was “only cleaved DNA was observed” and the “DNA forms seen on gel” value ([3]; pH 8.0, 350 nm UV 2.0 h) was “both supercoiled circular DNA and cleaved DNA were observed”. The “binding site on nucleic acid” value [4] was “bound to the C-2 amino on a guanine”, the “yield of cyclization product from intermediate” value ([4]; 350-nm UV light irradiation, not in the dark) was 80% and the “yield of complex-bound intermediate” value ([4]; excess of complex 1, piperidine treatment) was 42%. The “% form I (supercoiled circular DNA)” value [5, 6] was 37%, the “% form II (cleaved DNA)” value [5, 6] was 63% and the “(% form II)/(% form I)” value [5, 6] was 1.7. The “% form I (supercoiled circular DNA)” value [5, 7] was 20%, the “% form II (cleaved DNA)” value [5, 7] was 80% and the “(% form II)/(% form I)” value [5, 7] was 4.0. The “% form I (supercoiled circular DNA)” value [5, 8] was 7.1%, the “% form II (cleaved DNA)” value [5, 8] was 93% and the “(% form II)/(% form I)” value [5, 8] was 13. For the same molecule, the “% form I (supercoiled circular DNA)” value ([5]; complex 500 μM, in the dark) was 93%, the “% form II (cleaved DNA)” value ([5]; complex 500 μM, in the dark) was 7.0% and the “(% form II)/(% form I)” value ([5]; complex 500 μM, in the dark) was 0.070. For the same molecule, the DNA cleaving activity ([5]; concentration as low as 1.0 μM) was “very strong DNA cleaving activity” and the “cleavage of single-strand DNA” value ([5]; in the dark) was “did not occur”.
